For this assay, the system named is vaginolysin (vly). The assay is classed as cell-based, Gardnerella vaginalis.

Entries after “also recorded” stand apart in the source; their conditions may differ.

As to `C[C@@H](O)[C@H](O)[C@H](O)[C@@H](O)C=O` [D-fucose, 6-deoxy-D-galactose], the “effect on vly expression, in words” value is “expressed less vaginolysin; also recorded: significantly reduce vly expression”.

For the origin of these results see patent US20230398178A1, “METHODS AND COMPOSITIONS FOR TREATING OR PREVENTING A VAGINAL INFECTION OF GARDNERELLA VAGINALIS” (Massachusetts Institute of Technology, priority 2022, published 2023).
